Experimental data: patent US20240091318A1, “COMBINATION THERAPY COMPRISING LONG ACTING GLP-1/GLUCAGON AND NPY2 RECEPTOR AGONISTS” (Boehringer Ingelheim International GmbH, priority 2022, published 2024)

Legend:
[1] = Effect on acute food intake (AFI) in normal NMRI mice; assay type: in vivo; settings: male NMRI mice, 10 nmol/kg s.c. once, % vs. vehicle group
Protocol: Effect on Acute Food Intake in Normal NMRI Mice
Male NMRI mice were obtained from Charles River (Charles River, Research Models & Services Germany GmbH) or from JanVier (JanVier Labs, France) at 5 weeks of age. […] Room temperature was controlled to 21° C.±1° C., with 60%±20% humidity.
Animals were transferred 5-7 days before the start of the study to a real-time food intake monitoring system, HM-2 system (MBRose, Denmark), to allow acclimatization to experimental conditions. As the animals were uniquely identified with microchips, each individual animal was identified by its microchip upon entry and exit from the food channel. Randomization of the mice for each study group (n=7-8) was based on body weight measured the day before the start of the study. A vehicle-treated (50 mM phosphate buffer pH7 with 5% Mannitol) group was included in each experiment. Six hours before the start of the night phase animals were fasted. One hour before the dark phase animals were dosed once subcutaneously (10 nmol/kg) with test peptide. […] The food intake of the treated groups was normalized (in %) to the average food intake of the group receiving vehicle (Table 1). Statistical significance was evaluated using One-way analysis of variance with Turkey's multiple comparison test. P<0.05 was considered statistically significant.

[2] = Effect on body weight loss and food intake in wildtype Diet Induced Obesity (DIO) mice; assay type: in vivo
Text: Effect on Body Weight Loss in Wildtype Diet Induced Obesity Mice
Male C57BL6/J pre-fed on 60% high fat diet were obtained from The Jackson Laboratories at >16 weeks of age. Upon arrival of the Diet Induced Obesity (DIO) mice, the mice where single housed to obtain accurate and individual food intake measurements of each animal and assigned an animal number. […] During the entire study animals had ad libitum access to food and water.
Before start of treatment a stratified randomization was performed based on the body weight measured in week −1 prior study start. At study start the age of mice was around 20 weeks. Bodyweight and food intake were measured daily before compound administration. Animals were dosed around one hour before start of the night phase by subcutaneous injection of 30 nmol/kg once daily for 5 till 28 days depending on the experiment. Control animals were dosed by subcutaneous injection daily with vehicle.

What does the source list for `CC[C@H](C)[C@H](NC(=O)[C@H](CCC(=O)O)NC(=O)[C@H](CCC(=O)O)NC(=O)[C@@H]1CCCN1C(=O)[C@H](CO)NC(=O)[C@H](C)NC(=O)[C@H](CC(=O)O)NC(=O)[C@H](CCC(=O)O)NC(=O)[C@H](CCC(=O)O)NC(=O)[C@@H]1CCCN1C(=O)[C@H](CCCCNC(=O)COCCOCCNC(=O)COCCOCCNC(=O)CC[C@H](NC(=O)CCCCCCCCCCCCCCCCC(=O)O)C(=O)O)NC(=O)[C@H](C)NC(=O)[C@@H]1CCCN1C(=O)[C@H](C)NC(=O)CC(C)C)C(=O)N[C@@H](CCC(N)=O)C(=O)N[C@@H](CCCNC(=N)N)C(=O)N[C@@H](Cc1ccc(O)cc1)C(=O)N[C@@H](Cc1ccc(O)cc1)C(=O)N[C@H](C(=O)N[C@@H](CO)C(=O)N[C@@H](CC(C)C)C(=O)N[C@@H](CCCNC(=N)N)C(=O)N[C@@H](Cc1c[nH]cn1)C(=O)N[C@@H](Cc1ccc(O)cc1)C(=O)N[C@@H](Cc1ccc(O)cc1)C(=O)N[C@@H](CC(N)=O)C(=O)N[C@@H](Cc1c[nH]c2ccccc12)C(=O)N[C@@H](CC(C)C)C(=O)N[C@H](C(=O)N[C@@H](CCCNC(=N)N)C(=O)N[C@@H](CCC(N)=O)C(=O)N[C@@H](CCCNC(=N)N)C(=O)N[C@@H](Cc1ccc(O)cc1)C(N)=O)[C@@H](C)O)C(C)C` [Compound E, N{alpha-4}-(3-methylbutanoyl)-N{epsilon-7}-[2-(2-{2-[2-(2-{2-[(4S)-4-carboxy-4-(17-carboxyheptadecanamido)butanamido]ethoxy}ethoxy)acetamido]ethoxy}ethoxy)acetamido]-[4A,6A,7K,9E,17I,18Q,22V,28Y,30W,31L]hPYY(4-36)]?
AFI 10 nmol/kg 24 h (food intake normalized to vehicle group) [1]: 48%; BW 30 nmol/kg 5 day (body weight loss vs. vehicle group) ([2]; 30 nmol/kg s.c. once daily, 5 day): 7.3%; body weight lowering efficacy (% BW), combination with Compound I compared to combination with semaglutide ([2]; once daily (FIGS. 6A, 8A vs. 5A, 7A)): greater body weight lowering efficacy; duration of food intake reduction, combination with Compound I vs. combination with semaglutide ([2]; once daily (FIGS. 6B, 8B vs. 5B, 7B)): longer-lasting effect on food intake; total food intake, combination with Compound I ([2]; once daily, area under the curve of food intake (FIGS. 6D, 8D)): pronounced total food intake reduction; body weight loss in combination with Compound I ([2]; once daily, combination with Compound I (FIGS. 6A, 8A, 10A)): Synergistic body weight loss; effect on body weight in combination with semaglutide ([2]; once daily, combination with semaglutide (FIGS. 5A, 7A, 9A)): synergistic effect
